Assay results published in US8541411B2, “Benzimidazole derivatives as PI3 kinase inhibitors” (GlaxoSmithKline LLC, priority 2010, dated 2013).

Target: T1, PI3Kβ (Homo sapiens, UniProt P42338)
T1 construct: made in house
Experiment: HTRF in vitro profiling assay for PI3K inhibition, beta isoform
Format: biochemical
Details: one experimental run or average of two or more runs; 200 pM enzyme, 100 uM ATP, 10 uM PIP2; read-out: P13KB PIC50 MEAN (converted)
From the text: The PI3-Kinase profiling assays were developed to measure the compound-dependent inhibition of the alpha, beta, delta, and gamma isoforms of PI3K in an in vitro catalytic assay. This assay was developed and optimized from a kit produced by Upstate (Millipore catalog #33-017). Briefly, this procedure utilizes a pre-formed HTRF (Homogeneous Time-Resolved Fluorescence energy transfer) complex between four binding partners: 1) biotinylated PIP3, 2) GST tagged pleckstrin homology (PH) domain, 3) Europium labeled anti-GST monoclonal antibody, and 4) Streptavidin-Allophycocyanin (APC). The native PIP3 produced by PI 3-Kinase activity displaces biotin-PIP3 from the PH domain, resulting in the dissociation of the HTRF complex and a decrease in the fluorescence signal. The format of this assay is the same for all 4 isoforms of PI3K; the differences lie in the concentration of enzyme used to achieve the most robust signal. The alpha and delta assays are run at 400 pM enzyme; the beta assay is at 200 pM enzyme and the gamma assay is run at 1 nM enzyme. In addition, the alpha, beta and delta assays are run with 150 mM NaCl while the gamma assay is run in the absence of NaCl. The ATP concentration is 100 uM in the alpha, beta, and delta assays and 15 uM ATP in the gamma assay. All reactions are run at 10 uM PIP2
Compounds were serially diluted (3-fold in 100% DMSO) across a 384-well polypropylene mother plate from column 1 to column 12 and column 13 to column 24, to yield 11 concentrations for each test compound. Columns 6 and 18 contain only DMSO. Once titrations were made, 0.05 μL was transferred to a 384-well low-volume assay plate (Greiner 784076). This assay plate contained three pharmacological controls (known PI3K inhibitors) and 3 assay controls: (1) Enzyme without inhibitor; (2) Buffer minus enzyme, and (3) Buffer minus enzyme plus native PIP3. DMSO was stamped into all wells of columns 6 and 18. PIP3 was added at 40 μM in 1× Reaction buffer (1 μL of 200 μM PIP3) to alternating rows of column 18 (wells 18 B, D, F, H, J, L, N, P). The no-enzyme control reactions were run in wells 18 A, C, E, G, I, K, M, O (0.1 μL of 100% DMSO).
The PI3-Kinase profiling assay was optimized using the HTRF kit provided by Upstate (Millipore). The assay kit contained seven reagents: 1) 4× Reaction Buffer; 2) native PIP2 (substrate); 3) Stop A (EDTA); 4) Stop B (Biotin-PIP3); 5) Detection Mix A (Streptavidin-APC); 6) Detection Mix B (Eu-labeled Anti-GST plus GST-tagged PH-domain); 7) Detection Mix C (KF). In addition, the following items were obtained or purchased: PI3Kinase (prepared by GSK BR&AD), dithiothreitol (Sigma, D-5545), Adenosine-5′-triphosphate (ATP, Teknova cat. #A0220), native PIP3 (1,2-dioctanoyl-sn-glycero-3-[phosphoinositil-3,4,5-triphosphate]tetraammonium salt (Avanti polar lipids, 850186P), DMSO (Sigma, 472301).
PI3Kinase Reaction Buffer was prepared by diluting the stock 1:4 with de-ionized water. Freshly prepared DTT was added at a final concentration of 5 mM on the day of use. Enzyme addition and compound pre-incubation were initiated by the addition of 2.5 μL of PI3K (at twice its final concentration) in 1× reaction buffer to all wells using a Multidrop Combi. Plates were incubated at room temperature for 15 minutes. Reactions were initiated by addition of 2.5 μL of 2× substrate solution (PIP2 and ATP in 1× reaction buffer) using a Multidrop Combi. Plates were incubated at room temperature for one hour. Reactions were quenched by the addition of 2.5 μL of stop solution (Stop A and Stop B pre-mixed at a ratio of 5:1, respectively) to all wells using the Multidrop Combi.

T1 sequence (P42338 whole entry): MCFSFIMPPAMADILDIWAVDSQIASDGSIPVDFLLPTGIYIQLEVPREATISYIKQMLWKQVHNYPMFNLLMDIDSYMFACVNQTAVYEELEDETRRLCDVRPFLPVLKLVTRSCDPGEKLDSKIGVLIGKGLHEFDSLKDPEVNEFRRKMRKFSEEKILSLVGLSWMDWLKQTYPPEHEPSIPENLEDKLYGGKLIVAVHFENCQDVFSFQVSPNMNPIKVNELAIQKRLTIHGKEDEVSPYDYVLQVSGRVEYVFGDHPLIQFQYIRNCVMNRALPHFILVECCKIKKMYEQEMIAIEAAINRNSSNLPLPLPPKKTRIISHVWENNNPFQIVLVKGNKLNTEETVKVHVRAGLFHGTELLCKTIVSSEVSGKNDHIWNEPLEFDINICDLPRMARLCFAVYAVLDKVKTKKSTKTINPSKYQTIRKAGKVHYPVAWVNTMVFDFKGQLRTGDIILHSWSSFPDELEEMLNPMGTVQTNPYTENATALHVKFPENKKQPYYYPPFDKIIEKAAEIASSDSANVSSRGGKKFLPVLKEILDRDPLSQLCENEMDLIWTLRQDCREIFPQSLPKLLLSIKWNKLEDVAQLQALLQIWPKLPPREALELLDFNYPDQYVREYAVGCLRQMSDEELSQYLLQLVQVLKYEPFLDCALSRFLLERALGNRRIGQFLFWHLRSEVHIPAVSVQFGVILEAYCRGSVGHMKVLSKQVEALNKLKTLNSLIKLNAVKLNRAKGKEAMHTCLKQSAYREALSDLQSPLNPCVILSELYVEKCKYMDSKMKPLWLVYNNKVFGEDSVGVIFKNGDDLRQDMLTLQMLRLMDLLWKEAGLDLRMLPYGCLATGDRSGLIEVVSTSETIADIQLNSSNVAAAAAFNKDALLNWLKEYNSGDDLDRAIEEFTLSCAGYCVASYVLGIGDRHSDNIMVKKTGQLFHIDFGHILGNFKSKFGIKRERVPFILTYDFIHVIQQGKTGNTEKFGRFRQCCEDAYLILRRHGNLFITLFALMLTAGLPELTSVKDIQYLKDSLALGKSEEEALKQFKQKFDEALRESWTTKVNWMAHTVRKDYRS
T1 sequence (P27986 whole entry partner): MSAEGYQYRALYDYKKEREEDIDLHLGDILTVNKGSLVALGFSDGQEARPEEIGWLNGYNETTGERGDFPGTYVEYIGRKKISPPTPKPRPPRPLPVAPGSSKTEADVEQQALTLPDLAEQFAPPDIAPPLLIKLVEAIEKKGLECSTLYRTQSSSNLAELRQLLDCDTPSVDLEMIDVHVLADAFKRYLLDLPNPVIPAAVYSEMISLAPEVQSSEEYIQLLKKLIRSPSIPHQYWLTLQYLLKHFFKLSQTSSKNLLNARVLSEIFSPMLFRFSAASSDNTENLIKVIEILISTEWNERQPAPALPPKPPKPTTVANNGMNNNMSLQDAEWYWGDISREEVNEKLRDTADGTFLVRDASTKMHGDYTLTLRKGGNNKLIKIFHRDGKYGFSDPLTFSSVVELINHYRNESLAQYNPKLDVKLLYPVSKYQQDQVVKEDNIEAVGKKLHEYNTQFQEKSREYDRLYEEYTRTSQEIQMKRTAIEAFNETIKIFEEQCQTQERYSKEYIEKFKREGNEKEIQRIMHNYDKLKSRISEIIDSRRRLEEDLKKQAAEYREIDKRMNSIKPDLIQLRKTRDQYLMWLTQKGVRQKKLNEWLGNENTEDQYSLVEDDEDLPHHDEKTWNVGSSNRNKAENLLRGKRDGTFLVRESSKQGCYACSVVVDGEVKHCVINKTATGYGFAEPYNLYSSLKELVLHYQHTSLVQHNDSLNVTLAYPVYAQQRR

Row | Structure (SMILES) | IC50 [nM]
1 | CC(=O)Nc1cc(N2CCOCC2)cc2c1nc(C)n2Cc1cccc2ccccc12 [Example 3, N-(2-Methyl-6-morpholin-4-yl-1-naphthalen-1-ylmethyl-1H-benzoimidazol-4-yl)-acetamide] | 200
2 | Cc1nc2c(O)cc(N3CCOCC3)cc2n1Cc1cccc2ccccc12 [Example 5, 2-methyl-6-(4-morpholinyl)-1-(1-naphthalenylmethyl)-1H-benzimidazol-4-ol] | 1.58
3 | CC(C)c1nc2c(O)cc(N3CCOCC3)cc2n1Cc1cccc2ccccc12 [Example 11, 2-(1-methylethyl)-6-(4-morpholinyl)-1-(1-naphthalenylmethyl)-1H-benzimidazol-4-ol] | 2
4 | CC(C)c1nc2c(O)cc(N3CCOCC3)cc2n1Cc1cccc(Cl)c1Cl [Example 13, 1-[(2,3-dichlorophenyl)methyl]-2-(1-methylethyl)-6-(4-morpholinyl)-1H-benzimidazol-4-ol] | 7.94
5 | CCc1nc2c(O)cc(N3CCOCC3)cc2n1Cc1cccc(Cl)c1Cl [Example 14, 1-[(2,3-dichlorophenyl)methyl]-2-ethyl-6-(4-morpholinyl)-1H-benzimidazol-4-ol] | 3.16
6 | Cc1nc2c(F)cc(N3CCOCC3)cc2n1Cc1cccc2ccccc12 [Example 15, 4-fluoro-2-methyl-6-(4-morpholinyl)-1-(1-naphthalenylmethyl)-1H-benzimidazole] | 1
7 | CCc1nc2c(F)cc(N3CCOCC3)cc2n1Cc1cccc2ccccc12 [Example 17, 2-ethyl-4-fluoro-6-(4-morpholinyl)-1-(1-naphthalenylmethyl)-1H-benzimidazole] | 2.51
8 | CCc1nc2c(F)cc(N3CCOCC3)cc2n1Cc1cccc(Cl)c1Cl [Example 18, 1-[(2,3-dichlorophenyl)methyl]-2-ethyl-4-fluoro-6-(4-morpholinyl)-1H-benzimidazole] | 10
9 | Cc1nc2c(C(=O)O)cc(N3CCOCC3)cc2n1Cc1cccc2ccccc12 [Example 20, 2-methyl-6-(4-morpholinyl)-1-(1-naphthalenylmethyl)-1H-benzimidazole-4-carboxylic acid] | 6.31
10 | Cc1nc2c(C(=O)O)cc(N3CCOCC3)cc2n1Cc1cccc(Cl)c1Cl [Example 22, 1-[(2,3-dichlorophenyl)methyl]-2-methyl-6-(4-morpholinyl)-1H-benzimidazole-4-carboxylic acid] | 15.8
11 | Cc1nc2c(-c3nnc[nH]3)cc(N3CCOCC3)cc2n1Cc1cccc2ccccc12 [Example 25, 2-methyl-6-(4-morpholinyl)-1-(1-naphthalenylmethyl)-4-(1H-1,2,4-triazol-3-yl)-1H-benzimidazole] | 0.251
12 | Cc1nc2c(C#N)cc(N3CCOCC3)cc2n1Cc1cccc(Cl)c1Cl [Example 32, 1-[(2,3-dichlorophenyl)methyl]-2-methyl-6-(4-morpholinyl)-1H-benzimidazole-4-carbonitrile] | 12.6
13 | Cc1nc2c(C(=O)O)cc(N3CCOCC3)cc2n1Cc1cccc2cccnc12 [Example 35, 2-methyl-6-(4-morpholinyl)-1-(8-quinolinylmethyl)-1H-benzimidazole-4-carboxylic acid] | 63.1
14 | Cc1nc2c(C(=O)O)cc(N3CCOCC3)cc2n1Cc1ccc(Cl)c(Cl)c1 [Example 38, 1-[(3,4-dichlorophenyl)methyl]-2-methyl-6-(4-morpholinyl)-1H-benzimidazole-4-carboxylic acid] | 100
15 | Cc1c(Cn2c(C)nc3c(-c4nnc[nH]4)cc(N4CCOCC4)cc32)cccc1C(F)(F)F [Example 39, 2-methyl-1-{[2-methyl-3-(trifluoromethyl)phenyl]methyl}-6-(4-morpholinyl)-4-(1H-1,2,4-triazol-3-yl)-1H-benzimidazole] | 0.631
16 | CC(=O)c1cc(N2CCOCC2)cc2c1nc(C)n2Cc1cccc2ccccc12 [Example 41, 1-[2-methyl-6-(4-morpholinyl)-1-(1-naphthalenylmethyl)-1H-benzimidazol-4-yl]ethanone] | 1.58
17 | Cc1c(Cn2c(C)nc3c(CO)cc(N4CCOCC4)cc32)cccc1C(F)(F)F [Example 43, [2-methyl-1-{[2-methyl-3-(trifluoromethyl)phenyl]methyl}-6-(4-morpholinyl)-1H-benzimidazol-4-yl]methanol] | 5.01
18 | O=C(O)c1cc(N2CCOCC2)cc2c1nc(C(F)(F)F)n2Cc1cccc2ccccc12 [Example 50, 6-(4-morpholinyl)-1-(1-naphthalenylmethyl)-2-(trifluoromethyl)-1H-benzimidazole-4-carboxylic acid] | 1.26
19 | Cc1c(Cl)cccc1Cn1c(C(F)(F)F)nc2c(C(=O)O)cc(N3CCOCC3)cc21 [Example 53, 1-[(3-chloro-2-methylphenyl)methyl]-6-(4-morpholinyl)-2-(trifluoromethyl)-1H-benzimidazole-4-carboxylic acid] | 0.501
20 | Cc1c(Cn2c(C(F)(F)F)nc3c(C(N)=O)cc(N4CCOCC4)cc32)cccc1C(F)(F)F [Example 54, 1-{[2-methyl-3-(trifluoromethyl)phenyl]methyl}-6-(4-morpholinyl)-2-(trifluoromethyl)-1H-benzimidazole-4-carboxamide] | 2.51
21 | Cc1nc2c(-c3nnn[nH]3)cc(N3CCOCC3)cc2n1Cc1cccc2ccccc12 [Example 58, 2-methyl-6-(4-morpholinyl)-1-(1-naphthalenylmethyl)-4-(1H-tetrazol-5-yl)-1H-benzimidazole] | 6.31
22 | Cc1c(Cl)cccc1Cn1c(C)nc2c(C(=O)O)cc(N3CCOCC3)cc21 [Example 59, 1-[(3-chloro-2-methylphenyl)methyl]-2-methyl-6-(4-morpholinyl)-1H-benzimidazole-4-carboxylic acid] | 6.31
23 | Cc1c(Cn2c(C)nc3c(Br)cc(N4CCOCC4)cc32)cccc1C(F)(F)F [Example 63, 4-bromo-2-methyl-1-{[2-methyl-3-(trifluoromethyl)phenyl]methyl}-6-(4-morpholinyl)-1H-benzimidazole] | 1
24 | Cc1c(Cn2c(C(F)F)nc3c(C(=O)O)cc(N4CCOCC4)cc32)cccc1C(F)(F)F [Example 70, 2-(difluoromethyl)-1-{[2-methyl-3-(trifluoromethyl)phenyl]methyl}-6-(4-morpholinyl)-1H-benzimidazole-4-carboxylic acid] | 0.2
25 | Cc1c(Cl)cccc1Cn1c(C(F)F)nc2c(C(=O)O)cc(N3CCOCC3)cc21 [Example 72, 1-[(3-chloro-2-methylphenyl)methyl]-2-(difluoromethyl)-6-(4-morpholinyl)-1H-benzimidazole-4-carboxylic acid] | 1.58
26 | Cc1nc2c(C(=O)O)cc(N3CCOCC3)cc2n1Cc1cccc2ccsc12 [Example 73, 1-(1-benzothien-7-ylmethyl)-2-methyl-6-(4-morpholinyl)-1H-benzimidazole-4-carboxylic acid] | 25.1
